# Measurements: PubChem BioAssay AID624167 (Sanford-Burnham Center for Chemical Genomics, 2012)
# Calls of active or inactive are those of the source.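 Rule for the calls: active = mean IC50 for reducing PEG3 promoter reporter signal at or below a set limit, with IC50 above the limit in both counter screens; inactive = the rest, including counter screen hits.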
# Experiments:
# [1] = biological target: PEG-3 (UniProt Q6IN02); experiment: Peg3 promoter luciferase inhibitors, potency, dose response, cell-based, HeLa, CREF/GAPDH counter-screen panel (AID 624167); conditions: HeLa PEG-Prom luciferase reporter, overnight, CREF/GAPDH counter-screens, mean of runs
# [2] = tested on: PEG-3; experiment: as above; conditions: HeLa PEG-Prom luciferase reporter, overnight, CREF/GAPDH counter-screens
# [3] = run 1, dose range 1, individual replicate IC50 per panel
# [4] = run 2, dose range 1, individual replicate IC50 per panel
# Sequence of PEG-3 (UniProt Q6IN02) (Q6IN02 whole entry, looked up): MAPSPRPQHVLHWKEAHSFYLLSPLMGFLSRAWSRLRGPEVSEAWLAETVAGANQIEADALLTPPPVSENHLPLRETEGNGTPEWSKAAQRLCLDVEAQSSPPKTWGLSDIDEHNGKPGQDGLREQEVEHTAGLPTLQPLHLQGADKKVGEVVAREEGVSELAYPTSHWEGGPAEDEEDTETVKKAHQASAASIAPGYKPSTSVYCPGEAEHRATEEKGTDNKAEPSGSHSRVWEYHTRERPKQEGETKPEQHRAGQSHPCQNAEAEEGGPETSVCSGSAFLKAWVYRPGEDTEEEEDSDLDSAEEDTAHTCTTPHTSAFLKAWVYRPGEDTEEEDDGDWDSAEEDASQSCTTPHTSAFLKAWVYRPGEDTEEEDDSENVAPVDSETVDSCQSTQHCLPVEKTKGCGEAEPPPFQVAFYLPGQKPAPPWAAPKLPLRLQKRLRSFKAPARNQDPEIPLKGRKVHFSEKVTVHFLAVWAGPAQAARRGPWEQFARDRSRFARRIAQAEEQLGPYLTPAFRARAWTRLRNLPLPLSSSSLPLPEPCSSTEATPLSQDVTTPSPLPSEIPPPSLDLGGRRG
Structure (SMILES),IC50 [1],"IC50 [2, 3] [µM]","IC50 [2, 4] [µM]"
COc1ccc(OC)c(-c2cc(C(=O)N3CCN(c4ncccn4)CC3)c3ccccc3n2)c1,inactive,35,> 100
O=[N+]([O-])c1cc(F)c(N2CCCCCC2)cc1N1CCNCC1,15.7 µM,18.9,12.5
COc1ccc(CN2CCN(C(=O)c3cc(-c4cccnc4)nc4ccc(Cl)cc34)CC2)c(OC)c1OC,inactive,52.4,16.4
c1ccc(CCCNCCCn2cnc3c(OCc4ccccc4)ncnc32)cc1,inactive,34.7,19.5
CCOC(=O)c1sc2nc(CSc3ccccc3)nc(N3CCCN(C)CC3)c2c1C,19.4 µM,19.4,19.4
COc1ccc(CCn2c(=N)c(C(=O)NC3CCCC3)cc3c(=O)n4cccc(C)c4nc32)cc1,inactive,15.8,42.7
Cc1ccc2sc(N(CCCN(C)C)C(=O)c3ccc(S(=O)(=O)N4CCc5ccccc5C4)cc3)nc2c1C,17.4 µM,15.6,19.2
COC(=O)c1ccc(Nc2cc(C)nc3ccc(C)cc23)cc1,13.6 µM,17.9,9.4
COc1ccccc1CNC(=O)c1c(N)n(CCCN2CCOCC2)c2nc3ccccc3nc12,14.1 µM,18.3,9.79
CC(C)CC(N)c1csc(NC(=O)Nc2ccccc2C(C)(C)C)n1 (centres undefined),inactive,22.7,18.2
O=C1CSC(=S)N1Cc1cccnc1,17.9 µM,28.3,7.51
COCCn1c(C)cc(C2=NNC(=NC3CC3)SC2)c1C,0.76 µM,1.32,< 0.2
Cc1ccc2sc(N(CCCN(C)C)C(=O)c3ccc(S(=O)(=O)N(C)C4CCCCC4)cc3)nc2c1C,17.2 µM,20.7,13.7
Cc1ccc(-c2cc(-c3ccc(C)cc3)[n+](-c3ccccc3)c(-c3ccc(C)cc3)c2)cc1,> 100 µM (inactive),> 100,> 100
CC(=O)NC(c1ccc(C)cc1)c1cc(Cl)c2cccnc2c1O (centres undefined),inactive,3.25,> 100
CC1=NN(c2cccc(C(=O)O)c2)C(=O)/C1=C\C=C/c1ccccc1,14.8 µM,17.7,12
COc1ccc(-c2cc(C(=O)N(C)Cc3ccccc3F)c3ccccc3n2)cc1OC,inactive,23.9,24.1

Structure (SMILES),IC50 [1],"IC50 [2, 3] [µM]","IC50 [2, 4] [µM]"
CCCc1cc(=O)n2[nH]c(C)c(-c3ccc(Cl)cc3)c2n1,12.9 µM,14,11.8
CN(C)CCCN(C(=O)c1ccc(C(=O)c2ccccc2)cc1)c1nc2cc3c(cc2s1)OCO3,16 µM,18.8,13.3
COc1cccc(Nc2nc(C(N)Cc3ccccc3)cs2)n1 (centres undefined),18.2 µM,20.4,15.9
CC(=O)OCCNc1cc(SCc2ccco2)c2nonc2c1[N+](=O)[O-],inactive,26.8,20.4
Cc1ccc2cccc(OCC(=O)Nc3cccc(S(=O)(=O)N4CCCC4)c3)c2n1,inactive,22.3,33.9
CNC[C@H](CC1CCCCC1)NC[C@H](NCCC1CCCC1)[C@H](C)O,inactive,37.6,12.4
O=C(CSc1nc(Nc2ccccc2)nc(N2CCOCC2)n1)Nc1cc(Cl)ccc1O,13.7 µM,13,14.5
COc1ccc(OC)c(Cc2cnc3nc(N)nc(N)c3c2C)c1,inactive,48.7,1.36
CN(C)c1ccc(C(C(=O)NCc2ccccc2)N(Cc2ccco2)C(=O)c2snc(C(N)=O)c2N)cc1 (centres undefined),> 100 µM (inactive),> 100,> 100
C[C@@]12C(=O)Nc3cc(Cl)ccc3C(=O)N1[C@H]1c3cc(Cl)ccc3OC[C@@H]1[C@@H]2c1ccccc1,11.5 µM,16.3,6.77
CCCc1nc(SCC(=O)N2CCCc3ccccc32)c2c(=O)n(C)c(=O)n(C)c2n1,inactive,49,38.2
NC(=O)c1nsc(C(=O)N(c2ccccc2F)C(C(=O)NCc2ccccc2)c2ccc(O)cc2)c1N (centres undefined),inactive,39.4,> 100
CCN(Cc1ccccc1)S(=O)(=O)c1ccc(C(=O)N(CCCN(C)C)c2nc3cc4c(cc3s2)OCO4)cc1,17.8 µM,19.6,16
O=C1c2ccccc2S(=O)(=O)N1Cc1nc2ccccc2s1,11.3 µM,8.32,14.3
CN(C)CC1CCC/C(=C/c2ccc(Cl)cc2)C1=O (centres undefined),11.1 µM,14.5,7.74
CCOC(=O)c1ccc(NC(=O)C2CCCN(S(=O)(=O)c3ccc(F)cc3)C2)cc1 (centres undefined),inactive,20.9,43.1
